{"source": "patent US10113114B2", "about": "“Apparatus and method for coating particulate material” (BASF Corporation, priority 2013, dated 2018)", "test_system": "red imported fire ant (Solenopsis invicta) workers", "conditions": "all rates tested (0.5 to 3 X label rate)", "text": "Testing with red imported fire ant (Solenopsis invicta, RIFA), Argentine ant (Linepthema humile), and odorous house ant (OHA) workers. Ten inch plastic arenas (inside walls coated with Fluon® to prevent escape) were provided a layer of moistened play sand. A band of mulch was placed across the arena near one side. Between the closest side and the mulch, a micro-centrifuge tube with a universal ant diet was placed. In the larger open area of the arena was placed a water vial and a small weigh boat with either corn grit+soybean oil (RIFA) or 20% honey water (Argentine ant and OHA). Approximately 100 ants were placed in each arena. Mortality was evaluated at 6 or 7 days."}
{"smiles": "CN/C(=N/CC1CCOC1)N[N+](=O)[O-]", "note": "(stereo not shown) [dinotefuran]", "values": [{"measurement": "efficacy of the insecticide on mulch (in words)", "result": "effective at all rates tested"}]}
